Reference: patent US5474992A, “Method of treatment with pharmaceutical composition for renal disorder and a dialysis solution for extracorporeal hemodialysis” (Senju Pharmaceutical Co., Ltd., priority 1993, dated 1995)

How the values were obtained:
[1] = tested on: adriamycin nephrosis in rats; test: Effect on adriamycin nephrosis in rats; format: in vivo, male SD rats; conditions: 1 mg/kg, i.p. once daily, day 80, mean ± standard error, n=5 to 6
Protocol: The effect of the compound of this Invention on adriamycin nephrosis in rats was evaluated.
Method: This study was conducted in male SD rats (body weight: about 180 g) purchased from Japan SLC. The rats were intravenously dosed with 7.5 mg/kg of adriamycin to induce renal impairment.
The test substance EPC-K was administered intraperitoneally once daily and the rat was sacrificed on day 80 for determination of biochemical parameters. Physiological saline was used as control.

[2] = tested on: neutrophil-derived active oxygens formed due to the dialysis membrane; test: Chemiluminescence assay of scavenging effect on neutrophil-derived active oxygens formed due to the dialysis membrane; format: cell-based, SD rat; conditions: PMMA membrane, MCLA; for Chemiluminescence photon count: mean ± standard deviation, n=5, blank test 42392 ± 12789
Protocol: The scavenging effect of the compound of this invention on the neutrophil-derived active oxygens formed due to the dialysis membrane was evaluated by the chemiluminescence assay.
An SD rat was intraperitoneally infused with 120 ml/kg of 1% casein-containing Krebs-Ringer bicarbonate buffer (Ca^2+ -free) and kept as it was for 15 to 18 hours. Then, ice-cooled phosphate buffered saline (Ca^2+ /Mg^2+ -free, briefly PBS) was infused into the peritoneal cavity and after massaging the abdomen, laparotomy was performed to collect the peritoneal fluid. This fluid was centrifuged (4° C.) at 150G for 5 minutes and the sediment was subjected to hemolysis treatment, washed with 2 portions of PBS and suspended in Hanks buffered saline (Ca^2+ /Mg^2+ -free; abbreviation: HBS) at a concentration of 5×10^6 cells/ml.
The hollow fiber of polymethyl methacrylate (PMMA) was taken out from the Filtrizer cartridge, rinsed and dried. The dried hollow fiber was milled in a mortar (to a particle diameter of about 20 to 100 μm) and suspended in HBS at a concentration of 100 mg/ml.
MCLA (2-methyl-6-[p-methoxyphenyl]-3,7,-dihydroimidazolo[1,2-a]pyrazin-3-one)(Cypridina luciferin analog; manufactured by Tokyo Kasei Kogyo Co., Ltd.) was dissolved in HBS at a concentration of 5 μM.
EPC-K was dissolved in HBS at final concentrations of 1 μM to 10 μM. To 100 μl of each solution were added 300 μl of the neutrophil suspension and 100 μl of the MCLA solution and the mixture was incubated at 37° for 10 minutes. Then, 20 μl of the PMMA suspension was added and the resulting MCLA-dependent chemiluminescence was quantitated in 5 replicates. From the photon count at maximal emission was subtracted the minimal count immediately following addition of the PMMA suspension to arrive at the chemiluminescence photon count (CPM). The count obtained with HBS (blank test) was compared with the count obtained with the drug and the percent inhibition (%) was calculated by means of the following equation. [formula]

[3] = tested on: rats with vitamin E deficiency; test: Effect on renal impairment in rats with vitamin E deficiency (DL-buthionine sulfoximine induced); format: in vivo, male Wistar rats; conditions: 141 mg/5 ml/kg p.o. once daily for one week, vitamin E-deficient rats + BSO, mean ± standard error, n=5
Protocol: The effect of the compound of this invention, administered orally, on renal impairment in rats with vitamin E deficiency was evaluated.
Test substance: L-ascorbyl DL-α-tocopheryl phosphate potassium (abbreviation: EPC-K).
Method: Male Wistar rats were purchased from Japan Clea, Inc. at the age of 4 weeks and put on a vitamin E-deficient diet for 10 weeks before the experiment.
The rat model of renal impairment was constructed by administering 1 mmol/kg of DL-buthionine sulfoximine (abbreviation: BSO), a glutathione (abbreviation: GSH) synthesis inhibitor, intraperitoneally once a day for 3 consecutive days.
Five hours after the last administration of DL-buthionine sulfoximine (BSO), the blood was drawn from the lower abdominal aorta under pentobarbital anesthesia and the serum levels of creatinine, urea nitrogen (abbreviation: BUN) and lipid peroxide (abbreviation: LPO), which are indicators of renal function, were determined by Jaffe's method, urease-indophenol method, and Yagi's method, respectively.
The test substance EPC-K was administered orally in a dose of 141 mg/5 ml/kg once daily for one week until the blood sampling day. As a control, distilled water was used.

[4] = Acute toxicity (LD50) in rats; conditions: rat, in vivo
Protocol: The compound of this invention for use as the active ingredient of said pharmaceutical composition or dialysis solution is extremely low in toxicity and highly safe and, therefore, can be used advantageously for purposes of this invention [e.g. the LD50 values of L-ascorbyl DL-α-tocopheryl phosphate potassium (hereinafter referred to briefly as EPC-K)≥5 g/kg p.o. (rats) and≥100 mg/kg i.v. (rats)].

[5] = tested on: adenine nephrosis in rats; test: Effect on adenine nephrosis in rats; format: in vivo, male Wistar rats; conditions: i.p. once a day, mean ± standard error, n=8 to 9; for Creatinine: control (saline) 1.95 ± 0.64; for BUN: control (saline) 98.4 ± 34.5
Protocol: The effect of the compound of this invention on adenine nephrosis in rats was evaluated.
Method: Male Wistar rats, aged 7 weeks, were purchased from SLC and used.
The rats were put on a 0.5% adenine-containing diet for 30 days to induce adenine nephrosis.
The test substance EPC-K was intraperitoneally administered once a day. Physiological saline was used as control.

salt-sensitive rats = test: Effect on salt-sensitive rats (NaCl-induced renal impairment); format: in vivo, male Dahl S rats; conditions: mean ± standard error, n=4 to 6, * p < 0.0001, control 30.0 ± 2.9
Protocol: The effect of the compound of this invention on salt-sensitive rats was investigated.
Method: Male Dahl S rats (salt-sensitive rats) were purchased from Seiwa Experimental Animal Institute and loaded with 8% aqueous solution of sodium chloride to induce renal impairment.
The test substance EPC-K was administered once daily for 4 weeks. As a control, distilled water was orally administered.

Compound: Cc1c(C)c2c(c(C)c1OP(=O)(O)OC1=C(O)[C@@H]([C@@H](O)CO)OC1=O)CCC(C)(CCCC(C)CCCC(C)CCCC(C)C)O2 (mixture of isomers) [EPC-K, L-ascorbyl DL-α-tocopheryl phosphate potassium]
- BUN ([1]; * p < 0.0001, control (saline) 23.5 ± 1.7): 18.2 ± 1.2 mg/dL
- Creatinine ([1]; control (saline) 0.50 ± 0.28): 0.30 ± 0 mg/dL
- LPO ([1]; control (saline) 2.5 ± 1.8): 1.4 ± 0.8 nmol/mL
- Urinary protein ([1]; control (saline) 696 ± 710): 119 ± 54 mg/day
- Chemiluminescence photon count ([2]; 1 μM): 32230 ± 6949 CPM
- Chemiluminescence photon count ([2]; 3 μM): 26800 ± 3057 CPM
- Chemiluminescence photon count ([2]; 10 μM): 14518 ± 3648 CPM
- inhibition at 1 µM ([2]; Rattus norvegicus, 1 μM, versus blank test (HBS), read-out: Percent inhibition): 24%
- inhibition at 3 µM ([2]; Rattus norvegicus, 3 μM, versus blank test (HBS), read-out: Percent inhibition): 36.8%
- inhibition at 10 µM ([2]; Rattus norvegicus, 10 μM, versus blank test (HBS), read-out: Percent inhibition): 65.8%
- Creatinine (serum) ([3]; * p < 0.05, distilled water 5.8 ± 0.2): 2.0 ± 1.3 mg/dL
- BUN (serum) ([3]; ** p < 0.01, distilled water 208.5 ± 17.7): 62.5 ± 37.1 mg/dL
- LPO (serum lipid peroxide) ([3]; distilled water 5.4 ± 0.9): 3.8 ± 0.1 nmol/mL
- LD50 ([4]; iv, i.v. (rats)): ≥ 100 mg/kg
- LD50 ([4]; po, p.o. (rats)): ≥ 5000 mg/kg
- Creatinine ([5]; 5 mg/kg, * p < 0.05): 1.14 ± 0.32 mg/dL
- BUN ([5]; 5 mg/kg, * p < 0.05): 61.5 ± 13.2 mg/dL
- Creatinine ([5]; 10 mg/kg, ** p < 0.01): 0.73 ± 0.15 mg/dL
- BUN ([5]; 10 mg/kg, ** p < 0.01): 40.2 ± 5.2 mg/dL
- BUN (salt-sensitive rats; 5 mg/kg, i.p. once daily for 4 weeks): 15.6 ± 2.7 mg/dL
- BUN (salt-sensitive rats; 141 mg/kg, p.o. once daily for 4 weeks): 18.5 ± 2.1 mg/dL
